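The compound was tested at five concentrations on cells cultured in 96-well plates, with a 48-hour exposure period. GI50: concentration for 50% inhibition of growth.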 The source made the active and inactive calls. Rule as the data show it: active = GI50 up to about 1.1 µM and inactive = higher.
Legend:
Experiment in all cases: DTP human tumour cell line panel, 48 h
[1] = system: HOP-62
[2] = system: OVCAR-5
[3] = system: NCI/ADR-RES
[4] = system: K562
[5] = system: OVCAR-4
[6] = system: HOP-92
[7] = system: M14
[8] = system: HCC 2998
[9] = system: RXF 393
[10] = system: NCI-H226
[11] = system: SF-539
[12] = system: DU-145
[13] = system: SNB-19
[14] = system: HT-29
[15] = system: MCF7
[16] = system: TK-10
[17] = system: Hs-578T
[18] = system: Malme-3M
[19] = system: MOLT-4
[20] = system: EKVX

Measured: GI50

CN1CCN(c2ccc3[nH]c(-c4ccc5[nH]c(-c6ccc(O)cc6)nc5c4)nc3c2)CC1
inactive: [1] 250 µM | [2] 473 µM | [3] 482 µM | [4] 23.3 µM | [5] 274 µM | [6] 33.7 µM | [7] 149 µM | [8] 151 µM | [9] 130 µM | [10] 170 µM | [11] 54.8 µM | [12] 329 µM | [13] 391 µM | [14] 92.7 µM | [15] 4.98 µM | [16] 705 µM | [17] > 100 µM | [18] 2.64 µM | [19] 29.1 µM

CN(C)c1ncnc2c1ncn2CCn1cnc2c(N(C)C)ncnc21
active: [19] < 0.01 µM
inactive: [1] > 100 µM | [20] > 100 µM | [2] > 100 µM | [3] > 100 µM | [5] > 100 µM | [6] > 100 µM | [7] > 100 µM | [8] > 100 µM | [9] > 100 µM | [11] > 100 µM | [12] > 100 µM | [13] > 100 µM | [14] > 100 µM | [15] > 100 µM | [16] > 100 µM | [17] > 100 µM | [18] > 100 µM

CC(C)(C)CNCCO
inactive: [1] > 100 µM | [20] > 100 µM | [2] > 100 µM | [3] > 100 µM | [5] > 100 µM | [6] > 100 µM | [7] > 100 µM | [8] > 100 µM | [9] > 100 µM | [10] > 100 µM | [11] > 100 µM | [12] > 100 µM | [13] > 100 µM | [14] > 100 µM | [15] > 100 µM | [16] > 100 µM | [17] > 100 µM | [18] > 100 µM

C=CCCC(=O)CC(O)(C(F)(F)F)C(F)(F)F
inactive: [20] > 100 µM | [2] > 100 µM | [3] > 100 µM | [4] > 100 µM | [5] > 100 µM | [6] > 100 µM | [7] > 100 µM | [8] > 100 µM | [9] > 100 µM | [10] > 100 µM | [11] > 100 µM | [12] > 100 µM | [13] > 100 µM | [14] > 100 µM | [15] > 100 µM | [16] > 100 µM | [17] > 100 µM | [18] > 100 µM | [19] > 100 µM

O=c1[nH]nc(-c2ccccc2)n1/N=C/c1c(O)ccc2ccccc12
inactive: [1] 34.8 µM | [20] > 100 µM | [2] > 100 µM | [3] 30.3 µM | [4] 60 µM | [5] 15.4 µM | [6] 34.2 µM | [7] 93.8 µM | [8] 28.4 µM | [9] 23.8 µM | [11] 31.2 µM | [12] 76.4 µM | [13] 24.9 µM | [14] 86.5 µM | [15] 59.7 µM | [16] 38.4 µM | [17] 14.1 µM | [19] > 100 µM

O=S(=O)(NNc1ccccc1)c1ccccc1
active: [7] 0.671 µM | [8] 0.902 µM
inactive: [1] 12.4 µM | [20] 14.4 µM | [2] 17.1 µM | [3] 10 µM | [4] 4.23 µM | [5] 2.62 µM | [6] 19.1 µM | [9] 7.73 µM | [10] 4.12 µM | [11] 32.7 µM | [12] 13.2 µM | [13] 39.7 µM | [14] 11.5 µM | [15] 14.9 µM | [16] > 100 µM | [17] 61 µM | [19] 26.5 µM

C=C(Cl)COC(=O)Nc1cccc(Cl)c1
inactive: [1] 38.3 µM | [20] 22.5 µM | [2] 48.2 µM | [3] 29.3 µM | [4] 54.6 µM | [5] 16.2 µM | [6] 22.7 µM | [7] 35.4 µM | [8] 37.1 µM | [9] 25 µM | [10] 44.8 µM | [11] 54.8 µM | [12] 31.1 µM | [13] 35.6 µM | [14] 33.3 µM | [15] 28.1 µM | [16] 60 µM | [17] 34 µM | [19] 57.5 µM

C[C@@H]1OC(=O)C[C@H]2CC(=O)N(CCC3CN(C(=O)c4ccccc4)c4ccccc43)C[C@@H]21 (some centres undefined)
inactive: [1] > 100 µM | [20] > 100 µM | [2] > 100 µM | [3] > 100 µM | [4] > 100 µM | [5] > 100 µM | [6] > 100 µM | [7] > 100 µM | [8] > 100 µM | [9] > 100 µM | [12] > 100 µM | [13] > 100 µM | [14] > 100 µM | [15] > 100 µM | [16] > 100 µM | [17] > 100 µM | [18] > 100 µM | [19] > 100 µM

CN(CCCNCc1ccccn1)Cc1ccccc1O
inactive: [1] 12.4 µM | [20] 33.4 µM | [2] 32 µM | [3] 16.3 µM | [4] 39.8 µM | [5] 31.8 µM | [6] 42.9 µM | [8] 25.1 µM | [9] 16.7 µM | [10] 15.4 µM | [12] 40.1 µM | [13] 21.6 µM | [14] 22 µM | [15] 43 µM | [16] 7.21 µM | [17] > 100 µM | [18] 27.8 µM | [19] 13.7 µM

CCOC(=O)Cc1csc2[n+]1C(=O)/C(=C\c1cccc(Cl)c1Cl)S2
inactive: [1] 20.8 µM | [20] 17.2 µM | [2] 32.6 µM | [3] 16.7 µM | [5] 11.6 µM | [6] 6.85 µM | [7] 26.9 µM | [8] 17.7 µM | [9] 16.7 µM | [10] 14.8 µM | [11] 22.3 µM | [12] 16.9 µM | [13] 21 µM | [14] 21.8 µM | [15] 28.1 µM | [16] 16 µM | [17] 29.5 µM | [19] 10.3 µM

COc1cc2nc(Nc3cccc(Br)c3)nc(Nc3cccc(Br)c3)c2cc1OC
inactive: [1] 18 µM | [20] 19.1 µM | [2] 23.1 µM | [3] 19.6 µM | [4] 22.8 µM | [5] 15.7 µM | [6] 15.3 µM | [7] 18.2 µM | [8] 23.6 µM | [9] 18.4 µM | [12] 18.3 µM | [13] 16.8 µM | [14] 18.7 µM | [15] 16.9 µM | [16] 21.5 µM | [17] 19.8 µM | [18] 19.1 µM | [19] 20.4 µM

CCCCOC(=O)C(=O)C(CC(CC)C(=O)c1ccccc1)C(=O)C=C(C)C (centres undefined)
inactive: [1] > 100 µM | [20] > 100 µM | [2] > 100 µM | [3] > 100 µM | [5] > 100 µM | [6] > 100 µM | [7] > 100 µM | [8] > 100 µM | [9] > 100 µM | [10] > 100 µM | [11] > 100 µM | [12] > 100 µM | [13] > 100 µM | [15] > 100 µM | [16] > 100 µM | [17] > 100 µM | [19] > 100 µM

COc1ccc(CNc2nc3ccccc3nc2C(=O)O)cc1OC
inactive: [1] > 100 µM | [20] > 100 µM | [3] 26.7 µM | [4] > 100 µM | [5] > 100 µM | [6] 17.1 µM | [8] > 100 µM | [9] > 100 µM | [10] > 100 µM | [11] > 100 µM | [12] > 100 µM | [14] > 100 µM | [15] > 100 µM | [16] > 100 µM | [17] > 100 µM | [18] > 100 µM | [19] > 100 µM

COC1=CC2(C=CC1=O)CCNC1=C2C(=O)c2nc[nH]c2C1=O (centres undefined)
inactive: [1] > 100 µM | [20] > 100 µM | [2] > 100 µM | [3] > 100 µM | [4] > 100 µM | [5] > 100 µM | [6] > 100 µM | [7] > 100 µM | [8] > 100 µM | [9] > 100 µM | [11] > 100 µM | [12] > 100 µM | [13] > 100 µM | [14] > 100 µM | [15] > 100 µM | [16] > 100 µM | [17] > 100 µM | [18] > 100 µM | [19] > 100 µM

CC1(C)[C@@H]2C[C@H]1c1cnc(-c3ccccn3)cc1C2[C@@H]1c2cc(-c3ccccn3)ncc2[C@@H]2C[C@H]1C2(C)C (some centres undefined)
inactive: [1] 39.1 µM | [20] > 100 µM | [2] > 100 µM | [3] 37.7 µM | [4] 22.6 µM | [5] 20.6 µM | [6] > 100 µM | [7] 38 µM | [8] 45.7 µM | [9] > 100 µM | [10] 28.4 µM | [12] > 100 µM | [13] 69.3 µM | [14] 45.3 µM | [15] 53 µM | [16] 16.6 µM | [17] > 100 µM | [18] 58.9 µM | [19] 44 µM
